Patent US7304174B2, “CaSR antagonist” (Japan Tobacco Inc., priority 2003, dated 2007)

What follows are molecules tested against T1, human calcium receptor (Homo sapiens, UniProt P41180) (assay: Evaluation of antagonistic action on calcium receptor using reporter gene (luciferase)). Settings: transformed rat adrenal derived cells, 5 mM calcium chloride, culture 4 hrs, luciferase activity; read-out: Reporter gene assay (IC50, concentration showing 50% inhibitory rate).
T1 construct: expressed in transfected cells; host or cells: cell strain derived from rat adrenal, co-transformed with luciferase cDNA
T1 sequence (P41180 20-1078): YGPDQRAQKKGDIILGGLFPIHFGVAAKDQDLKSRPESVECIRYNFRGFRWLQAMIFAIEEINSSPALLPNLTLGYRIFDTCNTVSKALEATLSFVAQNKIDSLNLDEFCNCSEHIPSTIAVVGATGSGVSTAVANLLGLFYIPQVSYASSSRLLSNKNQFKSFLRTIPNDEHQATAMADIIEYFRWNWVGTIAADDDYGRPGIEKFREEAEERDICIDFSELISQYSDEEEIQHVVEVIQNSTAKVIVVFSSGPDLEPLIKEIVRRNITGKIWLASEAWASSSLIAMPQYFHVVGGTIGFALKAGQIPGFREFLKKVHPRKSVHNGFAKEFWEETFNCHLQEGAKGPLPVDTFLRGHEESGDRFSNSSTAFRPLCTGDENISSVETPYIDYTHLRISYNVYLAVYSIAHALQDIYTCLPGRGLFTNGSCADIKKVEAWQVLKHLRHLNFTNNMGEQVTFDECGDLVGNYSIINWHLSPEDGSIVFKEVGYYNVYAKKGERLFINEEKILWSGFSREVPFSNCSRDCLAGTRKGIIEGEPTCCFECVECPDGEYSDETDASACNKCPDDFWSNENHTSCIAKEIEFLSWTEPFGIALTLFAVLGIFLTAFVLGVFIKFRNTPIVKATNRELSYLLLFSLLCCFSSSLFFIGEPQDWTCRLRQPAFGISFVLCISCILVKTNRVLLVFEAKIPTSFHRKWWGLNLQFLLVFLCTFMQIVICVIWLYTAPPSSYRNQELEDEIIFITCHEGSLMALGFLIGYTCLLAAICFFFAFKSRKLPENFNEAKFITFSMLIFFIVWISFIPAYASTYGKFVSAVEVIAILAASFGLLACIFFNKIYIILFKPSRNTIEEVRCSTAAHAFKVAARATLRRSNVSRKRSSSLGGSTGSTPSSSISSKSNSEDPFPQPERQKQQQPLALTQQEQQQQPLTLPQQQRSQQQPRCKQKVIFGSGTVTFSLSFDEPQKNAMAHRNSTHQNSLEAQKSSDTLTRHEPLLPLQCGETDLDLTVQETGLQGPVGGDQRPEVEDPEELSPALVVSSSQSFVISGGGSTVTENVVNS
Assay type: cell-based
Experimental: Evaluation of Antagonistic Action on Calcium Receptor Using Reporter Gene
Luciferase cDNA and human calcium receptor cDNA were introduced into a cell strain derived from rat adrenal to transform the cells, and the transformed cells were cultured in a medium (80 μl, F12 medium containing 0.5% dialyzed horse serum and 0.25% dialyzed bovine fetal serum). A dimethyl sulfoxide solution containing a test compound at 0.1-10000 μM was diluted 100-fold with the medium and added to the test compound group at 10 μl per well (dimethyl sulfoxide final concentration 0.1%). In the same manner as in test compound group, dimethyl sulfoxide 100-fold diluted with medium was added to a control group and a blank group. Then, 50 mM calcium chloride-containing medium was added to every well except the blank group at 10 μl per well (final concentration 5 mM). A medium containing 50 mM calcium chloride was added to the control group at 10 μl per well, such that the final calcium concentration of the medium became 5 mM. A medium alone was added to the blank group. After culture for 4 hrs, luciferase substrate was added and the luciferase activity was measured with a photoluminometer. The inhibitory rate (%) was calculated from the obtained measured values according to the following formula.
Based on the results, the concentration (IC50) showing 50% inhibitory rate was determined. The results are shown in the aforementioned Tables 1 to 60.

First: C[C@@H](OC[C@H](O)CNC(C)(C)Cc1ccc2ccccc2c1)c1ccccc1-c1ccc(C(=O)O)c(O)c1 [Example 1-49, 2′-[1-[(2R)-3-[[1-(naphthalen-2-yl)-2-methylpropan-2-yl]amino]-2-hydroxypropoxy]ethyl]-3-hydroxybiphenyl-4-carboxylic acid]
Second: C[C@@H](OC[C@H](O)CNC(C)(C)Cc1ccc2ccccc2c1)c1ccccc1-c1ccc(F)c(C(=O)O)c1 [Example 1-56, 4-fluoro-2′-[1-[(2R)-3-[[1-(naphthalen-2-yl)-2-methylpropan-2-yl]amino]-2-hydroxypropoxy]ethyl]biphenyl-3-carboxylic acid]
The IC50 of the first is 9.5-fold lower: 2 nM for the first, 19 nM for the second.

`Cc1ccc(CC(C)(C)NC[C@@H](O)CO[C@H](C)c2ccccc2-c2ccc(C(=O)O)c(Cl)c2)cc1F` [Example 1-72, 3-chloro-2′-[1-[(2R)-3-[[1-(3-fluoro-4-methylphenyl)-2-methylpropan-2-yl]amino]-2-hydroxypropoxy]ethyl]biphenyl-4-carboxylic acid] and `Cc1cc(-c2ccccc2[C@@H](C)OC[C@H](O)CNC(C)(C)Cc2ccc(Cl)c(F)c2)ccc1C(=O)O` [Example 1-88] are within 1.5-fold of each other in IC50: 15 nM for the first, 14 nM for the second.

`CC(OC[C@H](O)CNC(C)(C)Cc1ccc2ccccc2c1)c1ccccc1Oc1ccc(C(=O)O)cc1` (stereo partly drawn) [Example 2-4, 4-[2-[1-[(2R)-3-[[1-(naphthalen-2-yl)-2-methylpropan-2-yl]amino]-2-hydroxypropoxy]ethyl]phenoxy]benzoic acid] and `CC(OC[C@H](O)CNC(C)(C)Cc1ccc2ccccc2c1)c1ccccc1Sc1ccc(C(=O)O)cc1` (stereo partly drawn) [Example 2-16, 4-[2-[1-[(2R)-3-[[1-(naphthalen-2-yl)-2-methylpropan-2-yl]amino]-2-hydroxypropoxy]ethyl]phenylthio]benzoic acid] are within 1.5-fold of each other in IC50: 10 nM for the first, 14 nM for the second.

Compared with `Cc1ccc(CC(C)(C)NC[C@@H](O)CO[C@H](C)c2ccccc2OCc2ccc(C(=O)O)cc2C)cc1F` [Example 2-26, 4-[[2-[1-[(2R)-3-[[1-(3-fluoro-4-methylphenyl)-2-methylpropan-2-yl]amino]-2-hydroxypropoxy]ethyl]phenoxy]methyl]-3-methylbenzoic acid], `Cc1ccc(CC(C)(C)NC[C@@H](O)CO[C@H](C)c2ccccc2OCc2ccc(C(=O)O)cc2F)cc1F` [Example 2-25, 3-fluoro-4-[[2-[1-[(2R)-3-[[1-(3-fluoro-4-methylphenyl)-2-methylpropan-2-yl]amino]-2-hydroxypropoxy]ethyl]phenoxy]methyl]benzoic acid] is 2.7-fold higher in IC50: 24 nM for the first, 65 nM for the second.

Compared with `Cc1cc(-c2ccccc2[C@@H](C)OC[C@H](O)CNC(C)(C)Cc2ccc(C)c(C(F)(F)F)c2)ccc1C(=O)O` [Example 1-104, 2′-[1-[(2R)-3-[[1-(3-trifluoromethyl-4-methylphenyl)-2-methylpropan-2-yl]amino]-2-hydroxypropoxy]ethyl]-3-methylbiphenyl-4-carboxylic acid], `Cc1ccc(CC(C)(C)NC[C@@H](O)CO[C@H](C)c2ccccc2-c2ccc(C)c(C(=O)O)c2)cc1F` [Example 1-86, 2′-[1-[(2R)-3-[[1-(3-fluoro-4-methylphenyl)-2-methylpropan-2-yl]amino]-2-hydroxypropoxy]ethyl]-4-methylbiphenyl-3-carboxylic acid] is 2-fold lower in IC50: 28 nM for the first, 14 nM for the second. The second is the more potent here.

Compared with `Cc1ccc(CC(C)(C)NC[C@@H](O)CO[C@H](C)c2ccccc2-c2ccc(CO)c(C(=O)O)c2)cc1F` [Example 1-47, 2′-[1-[(2R)-3-[[1-(3-fluoro-4-methylphenyl)-2-methylpropan-2-yl]amino]-2-hydroxypropoxy]ethyl]-4-(hydroxymethyl)biphenyl-3-carboxylic acid], `Cc1ccc(CC(C)(C)NC[C@@H](O)CO[C@@H](c2ccccc2-c2ccc(C(=O)O)c(C)c2)C2CC2)cc1F` [Example 1-14, 2′-[(cyclopropyl)[(2R)-3-[[1-(3-fluoro-4-methylphenyl)-2-methylpropan-2-yl]amino]-2-hydroxypropoxy]methyl]-3-methylbiphenyl-4-carboxylic acid] is 11-fold lower in IC50: 65 nM for the first, 6 nM for the second.

First: COC(=O)c1cc(C(=O)OC)cc(-c2ccccc2[C@@H](C)OC[C@H](O)CNC(C)(C)Cc2ccc3ccccc3c2)c1 [Example 1-10, methyl 2′-[1-[(2R)-3-[[1-(naphthalen-2-yl)-2-methylpropan-2-yl]amino]-2-hydroxypropoxy]ethyl]biphenyl-3,5-dicarboxylate]
Second: C[C@@H](OC[C@H](O)CNC(C)(C)Cc1ccc2ccccc2c1)c1ccccc1-c1cc2c(c(C(=O)O)c1)OCC2 [Example 1-74, 2,3-dihydro-5-[2-[1-[(2R)-3-[[1-(naphthalen-2-yl)-2-methylpropan-2-yl]amino]-2-hydroxypropoxy]ethyl]phenyl]benzofuran-7-carboxylic acid]
The IC50 of the first is 2.6-fold higher: 29 nM for the first, 11 nM for the second.

First: C[C@@H](OC[C@H](O)CNC(C)(C)Cc1ccc(Cl)c(F)c1)c1ccccc1-c1ccc(C(=O)O)c(C(C)(C)C)c1 [Example 1-100, 2′-[1-[(2R)-3-[[1-(4-chloro-3-fluorophenyl)-2-methylpropan-2-yl]amino]-2-hydroxypropoxy]ethyl]-3-t-butylbiphenyl-4-carboxylic acid]
Second: C[C@@H](OC[C@H](O)CNC(C)(C)Cc1ccc(Cl)c(Cl)c1)c1ccccc1-c1ccc(C(=O)O)c(C(F)(F)F)c1 [Example 1-31, 2′-[1-[(2R)-3-[[1-(3,4-dichlorophenyl)-2-methylpropan-2-yl]amino]-2-hydroxypropoxy]ethyl]-3-(trifluoromethyl)biphenyl-4-carboxylic acid]
The IC50 of the first is 3.4-fold higher: 17 nM for the first, 5 nM for the second.

`CC(OC[C@H](O)CNC(C)(C)Cc1ccc(Cl)cc1F)c1ccccc1Oc1ccc(C(=O)O)cc1` (stereo partly drawn) [Example 2-6, 4-[2-[1-[(2R)-3-[[1-(4-chloro-2-fluorophenyl)-2-methylpropan-2-yl]amino]-2-hydroxypropoxy]ethyl]phenoxy]benzoic acid] and `Cc1cc(C(=O)O)ccc1-c1ccccc1[C@@H](C)OC[C@H](O)CNC(C)(C)Cc1ccc(Cl)cc1F` [Example 1-84, 2′-[1-[(2R)-3-[[1-(4-chloro-2-fluorophenyl)-2-methylpropan-2-yl]amino]-2-hydroxypropoxy]ethyl]-2-methylbiphenyl-4-carboxylic acid] are the same in IC50: 22 nM for the first, 22 nM for the second.

Compared with `Cc1cc(-c2ccccc2[C@@H](C)OC[C@H](O)CNC(C)(C)Cc2cc(F)cc(Cl)c2)ccc1C(=O)O` [Example 1-93], `Cc1ccc(CC(C)(C)NC[C@@H](O)CO[C@H](C)c2ccccc2-c2ccc(C(=O)O)c(C)c2)cc1` [Example 1-22, 2′-[1-[(2R)-3-[[1-(4-methylphenyl)-2-methylpropan-2-yl]amino]-2-hydroxypropoxy]ethyl]-3-methylbiphenyl-4-carboxylic acid] is 2.2-fold lower in IC50: 27 nM for the first, 12 nM for the second.

First: Cc1cc(C(=O)O)cc(C)c1Oc1ccccc1C(C)OC[C@H](O)CNC(C)(C)Cc1ccc(Cl)cc1F (stereo partly drawn) [Example 2-13, 4-[2-[1-[(2R)-3-[[1-(4-chloro-2-fluorophenyl)-2-methylpropan-2-yl]amino]-2-hydroxypropoxy]ethyl]phenoxy]-3,5-dimethylbenzoic acid]
Second: Cc1cc(-c2ccccc2[C@H](OC[C@H](O)CNC(C)(C)Cc2ccc(Cl)c(F)c2)C2CC2)ccc1C(=O)O [Example 1-19, 2′-[(cyclopropyl)[(2R)-3-[[1-(4-chloro-3-fluorophenyl)-2-methylpropan-2-yl]amino]-2-hydroxypropoxy]methyl]-3-methylbiphenyl-4-carboxylic acid]
The IC50 of the first is 4.4-fold higher: 22 nM for the first, 5 nM for the second. The second is the more potent here.

In the case of `Cc1cc(-c2ccccc2[C@H](OC[C@H](O)CNC(C)(C)Cc2ccc3ccccc3c2)C2CC2)ccc1C(=O)O` [Example 1-11, 2′-[(cyclopropyl)[(2R)-3-[[1-(naphthalen-2-yl)-2-methylpropan-2-yl]amino]-2-hydroxypropoxy]methyl]-3-methylbiphenyl-4-carboxylic acid], the IC50 is reported as 18 nM.
